Measurements taken from paper PMC7493219 (Journal of Crohn's & Colitis, 2020).
Like-named read-outs stand apart in the source and are kept apart here. One block for each molecule: values may come before it.

Experiments:
[1] = system: oxazolone-induced colitis; experiment: Oxazolone-induced colitis model; assay type: in vivo, Balb/C mice; conditions: for effects of oxazolone (DAI and subscores): highest dose tested, 30 mg/kg
pSTAT3 in colonic mucosa = experiment: Target engagement in the oxazolone colitis model; assay type: in vivo, Balb/C mice; conditions: oral 30 mg/kg BID; for T cell infiltration into the colonic mucosa: oxazolone-treated mice
[2] = Oral pharmacokinetics in mice; conditions: for concentration at 24 h / Cmax: male, Balb/C, mouse, in vivo, 10 mg/kg; for Cmax: po
[3] = system: splenic NK, T and B cells; experiment: Splenocyte studies; assay type: in vivo, Balb/C mice; conditions: 3 days
[4] = system: IL-13-potentiated IL-8 production in HT-29 cells; experiment: HT-29 IL-13/IL-8 assay; assay type: cell-based; conditions: Homo sapiens, HT-29, read-out: Mean ± SD inhibitory potency [pIC50], IL-13/IL-8 (converted)
[5] = Phase 1b study, safety and tolerability in UC patients; assay type: in vivo, human; conditions: 20, 80, 270 mg QD 28 days
mouse recombinant JAK1 = mouse recombinant JAK1 (Mus musculus, UniProt P52332); experiment: LanthaScreen kinase assay; assay type: biochemical
mouse recombinant JAK1, sequence (P52332 whole entry): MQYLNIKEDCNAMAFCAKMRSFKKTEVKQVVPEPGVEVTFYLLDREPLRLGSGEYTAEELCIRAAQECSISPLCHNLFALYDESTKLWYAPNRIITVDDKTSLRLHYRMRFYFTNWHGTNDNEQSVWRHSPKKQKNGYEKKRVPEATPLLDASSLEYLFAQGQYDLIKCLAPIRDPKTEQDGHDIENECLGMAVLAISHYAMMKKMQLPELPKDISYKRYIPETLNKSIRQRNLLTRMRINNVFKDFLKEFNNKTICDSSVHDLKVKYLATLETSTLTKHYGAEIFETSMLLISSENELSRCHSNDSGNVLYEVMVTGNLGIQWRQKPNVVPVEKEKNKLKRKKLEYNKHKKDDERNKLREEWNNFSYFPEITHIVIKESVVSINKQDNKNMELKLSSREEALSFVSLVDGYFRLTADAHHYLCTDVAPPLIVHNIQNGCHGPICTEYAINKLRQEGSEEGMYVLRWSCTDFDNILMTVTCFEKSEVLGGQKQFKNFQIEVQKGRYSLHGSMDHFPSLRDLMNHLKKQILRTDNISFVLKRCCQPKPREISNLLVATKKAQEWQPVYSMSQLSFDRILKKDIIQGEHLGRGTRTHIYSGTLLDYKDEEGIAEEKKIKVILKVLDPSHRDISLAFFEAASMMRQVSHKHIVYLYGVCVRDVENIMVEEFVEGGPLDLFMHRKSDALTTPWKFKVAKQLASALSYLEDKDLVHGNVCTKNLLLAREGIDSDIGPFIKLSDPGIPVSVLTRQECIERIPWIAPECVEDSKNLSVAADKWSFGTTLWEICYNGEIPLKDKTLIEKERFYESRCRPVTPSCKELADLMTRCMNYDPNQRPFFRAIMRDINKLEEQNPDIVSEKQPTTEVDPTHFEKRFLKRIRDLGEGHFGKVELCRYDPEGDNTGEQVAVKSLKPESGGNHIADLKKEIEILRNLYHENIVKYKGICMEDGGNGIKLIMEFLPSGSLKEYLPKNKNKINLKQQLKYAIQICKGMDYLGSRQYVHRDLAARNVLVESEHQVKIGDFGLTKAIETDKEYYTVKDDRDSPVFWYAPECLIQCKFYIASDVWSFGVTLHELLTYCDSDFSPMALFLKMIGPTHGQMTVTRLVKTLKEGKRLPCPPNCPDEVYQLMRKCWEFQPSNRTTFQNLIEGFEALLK

[6] = FTIH SAD/MAD study, safety and tolerability in healthy subjects; assay type: in vivo, human; conditions: single dose up to 1000 mg, daily doses up to 300 mg for 14 days
[7] = system: IL-4-induced pSTAT6 in THP-1 cells; experiment: THP-1 IL-4/pSTAT6 assay; assay type: cell-based; conditions: Homo sapiens, THP-1, read-out: Mean ± SD inhibitory potency [pIC50], IL-4/pSTAT6 (converted)
[8] = system: IL-13-induced pSTAT6 in HT-29 cells; experiment: HT-29 IL-13/pSTAT6 assay; assay type: cell-based; conditions: Homo sapiens, HT-29, read-out: Mean ± SD inhibitory potency [pIC50], IL-13/pSTAT6 (converted)
[9] = system: IL-6-induced pSTAT1 in Balb/C mouse primary colonic epithelial cells; experiment: Mouse colonic epithelial cell IL-6/pSTAT1 assay; assay type: cell-based; conditions: from Table 1 pIC50
[10] = system: GM-CSF-induced pSTAT5 in THP-1 cells; experiment: THP-1 GM-CSF/pSTAT5 assay; assay type: cell-based; conditions: Homo sapiens, THP-1, read-out: Mean ± SD inhibitory potency [pIC50], GM-CSF/pSTAT5 (converted)
[11] = system: IL-6-induced pSTAT3 in THP-1 cells; experiment: THP-1 IL-6/pSTAT3 assay; assay type: cell-based; conditions: Homo sapiens, THP-1, read-out: Mean ± SD inhibitory potency [pIC50], IL-6/pSTAT3 (converted)
[12] = system: moderately to severely active UC; experiment: Phase 1b study, efficacy assessments; assay type: in vivo, human; conditions: after the 28-day treatment, all doses
[13] = system: GM-CSF-induced pSTAT5 in human whole blood; experiment: Human whole blood GM-CSF/pSTAT5 assay; assay type: cell-based; conditions: read-out: Mean ± SD inhibitory potency [pIC50], GM-CSF/pSTAT5 (converted)
human recombinant TYK2 = human recombinant TYK2 (Homo sapiens, UniProt P29597); experiment: LanthaScreen kinase assay; assay type: biochemical
human recombinant TYK2, sequence (P29597 whole entry): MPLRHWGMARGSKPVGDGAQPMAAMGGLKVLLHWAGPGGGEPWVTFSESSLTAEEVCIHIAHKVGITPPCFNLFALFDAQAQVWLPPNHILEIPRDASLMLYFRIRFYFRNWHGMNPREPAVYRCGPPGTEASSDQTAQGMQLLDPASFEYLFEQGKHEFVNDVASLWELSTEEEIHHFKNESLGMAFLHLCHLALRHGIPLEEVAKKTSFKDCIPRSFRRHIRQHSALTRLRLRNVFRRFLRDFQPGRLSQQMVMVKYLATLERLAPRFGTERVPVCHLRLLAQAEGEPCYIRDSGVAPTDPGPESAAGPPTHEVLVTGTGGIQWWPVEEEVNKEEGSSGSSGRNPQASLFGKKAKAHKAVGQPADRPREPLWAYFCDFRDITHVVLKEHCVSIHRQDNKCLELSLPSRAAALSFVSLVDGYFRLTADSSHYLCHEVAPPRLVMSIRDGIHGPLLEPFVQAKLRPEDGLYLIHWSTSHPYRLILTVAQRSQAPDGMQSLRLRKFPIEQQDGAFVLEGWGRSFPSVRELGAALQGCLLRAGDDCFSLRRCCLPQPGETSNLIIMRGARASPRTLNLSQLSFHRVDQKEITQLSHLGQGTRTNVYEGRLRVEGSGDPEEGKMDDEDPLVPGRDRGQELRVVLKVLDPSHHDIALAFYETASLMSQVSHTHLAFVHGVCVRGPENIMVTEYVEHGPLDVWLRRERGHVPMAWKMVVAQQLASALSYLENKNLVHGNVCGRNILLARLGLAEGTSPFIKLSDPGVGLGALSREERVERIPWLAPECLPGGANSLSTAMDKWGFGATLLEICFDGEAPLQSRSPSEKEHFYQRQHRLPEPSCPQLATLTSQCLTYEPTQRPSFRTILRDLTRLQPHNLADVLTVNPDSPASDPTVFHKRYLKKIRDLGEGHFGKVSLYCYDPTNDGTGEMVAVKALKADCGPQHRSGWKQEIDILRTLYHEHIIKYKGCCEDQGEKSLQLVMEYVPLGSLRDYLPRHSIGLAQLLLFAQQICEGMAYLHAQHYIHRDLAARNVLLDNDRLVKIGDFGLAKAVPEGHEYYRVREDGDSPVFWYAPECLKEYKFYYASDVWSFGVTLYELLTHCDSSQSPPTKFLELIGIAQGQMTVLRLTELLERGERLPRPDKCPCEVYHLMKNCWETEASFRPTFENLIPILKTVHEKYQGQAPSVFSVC

clinical = conditions: human, in vivo

colonic level 24 h postdose (BLQ) ([2]; 10 mg/kg oral): < 0.00025 µM
concentration at 24 h [2]: < 0.25 nM
Cmax ([2]; colon, 10 mg/kg oral): 2570 ng/mL
Cmax ([2]; plasma, 10 mg/kg oral): 193 ng/mL
splenic T and B cell numbers ([3]; oral 10, 15 and 30 mg/kg TID): did not affect
Structure (SMILES): C[C@@H]1CCN(C(=O)CC#N)C[C@@H]1N(C)c1ncnc2[nH]ccc12 [tofacitinib, reference compound]
effects of oxazolone (DAI and subscores) [1]: did not significantly attenuate
oxazolone-induced elevated DAI, reduction in body weight and stool consistency, increase in stool blood content ([1]; oral 10 and 15 mg/kg TID): attenuated
T cell infiltration into the colonic mucosa (pSTAT3 in colonic mucosa): preventing T cell infiltration
pSTAT3 levels in colonic mucosa of oxazolone-treated mice vs vehicle (pSTAT3 in colonic mucosa; 30 mg/kg): significantly inhibited

Structure (SMILES): Cc1cc(Nc2cc3ncccc3c(N[C@@H]3C[C@H]4CC[C@@H](C3)N4CCC#N)n2)n[nH]1 [TD-1473]
IC50 [4]: 79.4 nM
TEAE incidence, TD-1473 treatment arms overall [5]: 38.7%
laboratory parameters (haematological, renal, hepatic, creatinine phosphokinase, lipid) [5]: did not adversely affect
tolerability [5]: generally well tolerated
Ki (mouse recombinant JAK1): 0.0631 nM
effects of oxazolone (DAI and subscores) [1]: did not significantly attenuate
oxazolone-induced elevated DAI, reduction in body weight and stool consistency, increase in stool blood content ([1]; oral 0.3–10 mg/kg BID): attenuated
tolerability [6]: generally well tolerated
IC50 [7]: 31.6 nM
T cell infiltration into the colonic mucosa (pSTAT3 in colonic mucosa; 30 mg/kg): preventing T cell infiltration
pSTAT3 levels in colonic mucosa of oxazolone-treated mice vs vehicle (pSTAT3 in colonic mucosa; 30 mg/kg): significantly inhibited
IC50 [8]: 79.4 nM
mouse colonic epithelial IL-6/pSTAT1 IC50 [9]: 0.020 µg/g
IC50 [10]: 100 nM
IC50 [11]: 50.1 nM
clinical remission [12]: No patient achieved clinical remission
colonic tissue concentration, geometric mean [95% CI] (20 mg QD, day 28): 4090 [2270–7380] pg/g
geometric mean colonic tissue concentration [average of sigmoid and rectum] (20 mg QD, day 28): 4090 pg/mL
patients with plasma trough concentration BLQ (20 mg, day 14): 4/9
geometric mean colonic tissue concentration [average of sigmoid and rectum] (80 mg QD, day 28): 65 300 pg/mL
geometric mean trough concentration as % of Cmax (80 mg, day 14): 3.57%
geometric mean colonic tissue concentration [average of sigmoid and rectum] (270 mg QD, day 28): 43 500 pg/mL
geometric mean trough concentration as % of Cmax (270 mg, day 14): 5.79%
IC50 [13]: 200 nM
concentration at 24 h [2]: < 0.25 nM
Cmax ([2]; colon, 10 mg/kg oral): 3690 ng/g
Cmax ([2]; plasma, 10 mg/kg oral): 1.4 ng/mL
stronger potency for TYK2 compared with tofacitinib (human recombinant TYK2): approximately 40 fold
Tmax (clinical): ~1 h
numbers of splenic NK, B or T cells vs vehicle ([3]; oral 1, 10 and 100 mg/kg BID): did not affect
